Measurements published in patent US20100292214A1, “Compounds with Antiparasitic Activity, Applications thereof to the Treatment of Infectious Diseases Caused by Apicomplexans” (commissariat a l'Energie Atomique, priority 2007, published 2010).
Structures can show the parent of a compound that is named as a salt. Where two headings read alike, the source gives them in different places.

Columns and labels:
[1] = system: Toxoplasma gondii RH-β1 strain; experiment: microbe, parasite or virus in culture; assay type: cell-based; conditions: read-out: IC50 assessed on Toxoplama Gondii
[2] = system: asynchronous 3D7 chloroquine-sensitive P. falciparum infected red blood cells; experiment: Labeled hypoxanthine incorporation assay (in vitro anti-malarial activity); assay type: cell-based; conditions: 3D7 chloroquine-sensitive strain, infected RBC, 48 h contact, [3H]-hypoxanthine incorporation, two independent experiments in duplicates, read-out: IC50 assessed on Plasmodium Falciparum
[3] = Plasmodium falciparum, 3D7, Erythrocyte

`C[C@@H](COC(=O)N1CCC(n2c(=O)oc3ccccc32)CC1)N(Cc1ccccc1)Cc1ccccc1` [Compound 2, (S)-2-(dibenzylamino)propyl 4-(2-oxobenzo[d]oxazol-3(2H)-yl)piperidine-1-carboxylate] showed an IC50 ([1]; Toxoplasma gondii) of 0.8 µM and an IC50 [2, 3] of 14.8 µM.

`C[C@@H](COC(=O)N1CCC(n2cnc3ccccc32)CC1)N(Cc1ccccc1)Cc1ccccc1` [Compound 3, (S)-2-(dibenzylamino)propyl 4-(1H-benzo[d]imidazol-1-yl)piperidine-1-carboxylate] showed an IC50 ([1]; Toxoplasma gondii) of 8 µM and an IC50 [2, 3] of 1.81 µM.

With `C[C@@H](COC(=O)N1CCC(Oc2nc3ccccc3n2C)CC1)N(Cc1ccccc1)Cc1ccccc1` [Compound 5, (S)-2-(dibenzylamino)propyl 4-(1-methyl-1H-benzo[d]imidazol-2-yloxy)piperidine-1-carboxylate] the IC50 ([1]; Toxoplasma gondii) was 2.5 µM and the IC50 [2, 3] was 6.16 µM.

Compound `C[C@@H](COC(=O)NCCCn1c(=O)[nH]c2ccccc21)N(Cc1ccccc1)Cc1ccccc1` [Compound 6, (S)-2-(dibenzylamino)propyl 3-(1,2-dihydro-2-oxobenzo[d]imidazol-3-yl)propylcarbamate] has an IC50 ([1]; Toxoplasma gondii) of 0.381 µM and an IC50 [2, 3] of 16.6 µM.

`C[C@@H](COC(=O)N1CCC(N2CCCc3ccccc32)CC1)N(Cc1ccccc1)Cc1ccccc1` [Compound 8, (S)-2-(dibenzylamino)propyl 4-(3,4-dihydroquinolin-1(2H)-yl)piperidine-1-carboxylate] showed an IC50 ([1]; Toxoplasma gondii) of 25 µM and an IC50 [2, 3] of 2.81 µM.

`O=c1[nH]c2ccccc2n1C1CCN(CCCCN(Cc2ccccc2)Cc2ccccc2)CC1` [Compound 9, 1-(1-(4-(dibenzylamino)butyl)piperidin-4-yl)-1H-benzo[d]imidazol-2(3H)-one] was tested, and the IC50 ([1]; Toxoplasma gondii) was 1.5 µM and the IC50 [2, 3] was 2.95 µM.

For `C[C@@H](COC(=O)N1CCC(n2c(=O)[nH]c3ncccc32)CC1)N(Cc1ccccc1)Cc1ccccc1` [Compound 11, (S)-2-(dibenzylamino)propyl 4-(2,3-dihydro-2-oxoimidazo[4,5-b]pyridin-1-yl)piperidine-1-carboxylate], the IC50 ([1]; Toxoplasma gondii) was 2.5 µM and the IC50 [2, 3] was 3.84 µM.

For `C[C@@H](COC(=O)N1CCC(n2c(=O)[nH]c3cc4ccccc4cc32)CC1)N(Cc1ccccc1)Cc1ccccc1` [Compound 12, (S)-2-(dibenzylamino)propyl 4-(1,2-dihydro-2-oxonaphtho[2,3-d]imidazol-3-yl)piperidine-1-carboxylate], the IC50 ([1]; Toxoplasma gondii) was 0.75 µM and the IC50 [2, 3] was 7.2 µM.

For `C[C@@H](COC(=O)N1CCCC(n2c(=O)[nH]c3ccccc32)CC1)N(Cc1ccccc1)Cc1ccccc1` (stereo partly drawn) [Compound 13, (S)-2-(dibenzylamino)propyl 4-(1,2-dihydro-2-oxobenzo[d]imidazol-3-yl)azepane-1-carboxylate], the IC50 ([1]; Toxoplasma gondii) was 5 µM and the IC50 [2, 3] was 10.7 µM.

With `Cc1nc2ccccc2n1C1CCN(C(=O)OC[C@H](C)N(Cc2ccccc2)Cc2ccccc2)CC1` [Compound 15, (S)-2-(dibenzylamino)propyl 4-(2-methyl-1H-benzo[d]imidazol-1-yl)piperidine-1-carboxylate] the IC50 ([1]; Toxoplasma gondii) was 3.41 µM and the IC50 [2, 3] was 2.42 µM.

`C[C@@H](COC(=O)N1CCCC(n2c(=O)[nH]c3ccccc32)C1)N(Cc1ccccc1)Cc1ccccc1` (stereo partly drawn) [Compound 16, (S)-2-(dibenzylamino)propyl 3-(1,2-dihydro-2-oxobenzo[d]imidazol-3-yl)piperidine-1-carboxylate] showed an IC50 ([1]; Toxoplasma gondii) of 2.35 µM and an IC50 [2, 3] of 2.81 µM.

In the case of `C[C@@H](COC(=O)N1CCC(n2c(=O)[nH]c3ccccc32)C1)N(Cc1ccccc1)Cc1ccccc1` (stereo partly drawn) [Compound 17, (S)-2-(dibenzylamino)propyl 3-(1,2-dihydro-2-oxobenzo[d]imidazol-3-yl)pyrrolidine-1-carboxylate], the IC50 ([1]; Toxoplasma gondii) is reported as 3.3 µM and the IC50 [2, 3] is reported as 7.18 µM.

`CCOC(=O)C1CN(C(=O)OC[C@H](C)N(Cc2ccccc2)Cc2ccccc2)CCC1n1c(=O)[nH]c2ccccc21` (stereo partly drawn) [Compound 18, 1-(S)-2-(dibenzylamino)propyl 3-ethyl 4-(1,2-dihydro-2-oxobenzo[d]imidazol-3-yl)piperidine-1,3-dicarboxylate] showed an IC50 ([1]; Toxoplasma gondii) of 2.81 µM and an IC50 [2, 3] of 1.52 µM.

With `C[C@@H](COC(=O)N1CCC(Cn2c(=O)[nH]c3ccccc32)CC1)N(Cc1ccccc1)Cc1ccccc1` [Compound 19, (S)-2-(dibenzylamino)propyl 4-((1,2-dihydro-2-oxobenzo[d]imidazol-3-yl)methyl)piperidine-1-carboxylate] the IC50 ([1]; Toxoplasma gondii) was 3.41 µM and the IC50 [2, 3] was 5.79 µM.

`C[C@@H](COC(=O)N1CCC(CCn2c(=O)[nH]c3ccccc32)CC1)N(Cc1ccccc1)Cc1ccccc1` [Compound 20, (S)-2-(dibenzylamino)propyl 4-(2-(1,2-dihydro-2-oxobenzo[d]imidazol-3-yl)ethyl)piperidine-1-carboxylate] was tested, and the IC50 ([1]; Toxoplasma gondii) was 4.2 µM and the IC50 [2, 3] was 6.84 µM.

`C[C@@H](COC(=O)N1CCCC1Cn1c(=O)[nH]c2ccccc21)N(Cc1ccccc1)Cc1ccccc1` (stereo partly drawn) [Compound 23, (S)-2-(dibenzylamino)propyl 2-((1,2-dihydro-2-oxobenzo[d]imidazol-3-yl)methyl)pyrrolidine-1-carboxylate] gave an IC50 ([1]; Toxoplasma gondii) of 3.1 µM and an IC50 [2, 3] of 7.27 µM.

For `C[C@@H](COC(=O)N1CCC(n2c(=O)[nH]c3ccccc32)CC1)N(Cc1ccccc1)Cc1ccccc1` [Compound 25, (S)-2-(dibenzylamino)propyl 4-(1,2-dihydro-2-oxobenzo[d]imidazol-3-yl)piperidine-1-carboxylate], the IC50 ([1]; Toxoplasma gondii) was 14 µM and the IC50 [2, 3] was 4.9 µM.

With `O=C(OC[C@H](Cc1ccccc1)N(Cc1ccccc1)Cc1ccccc1)N1CCC(n2c(=O)[nH]c3ccccc32)CC1` [Compound 26, (S)-2-(dibenzylamino)-3-phenylpropyl 4-(1,2-dihydro-2-oxobenzo[d]imidazol-3-yl)piperidine-1-carboxylate] the IC50 ([1]; Toxoplasma gondii) was 4.8 µM and the IC50 [2, 3] was 1.4 µM.

For `C[C@@H](COC(=O)N1CC=C(n2c(=O)[nH]c3ccccc32)CC1)N(Cc1ccccc1)Cc1ccccc1` [Compound 28, (S)-2-(dibenzylamino)propyl 5,6-dihydro-4-(1,2-dihydro-2-oxobenzo[d]imidazol-3-yl)pyridine-1(2H)-carboxylate], the IC50 ([1]; Toxoplasma gondii) was 3.5 µM and the IC50 [2, 3] was 4.1 µM.

Work on `O=C(OCCCN(Cc1ccccc1)Cc1ccccc1)N1CCC(n2c(=O)[nH]c3ccccc32)CC1` [Compound 29, 3-(dibenzylamino)propyl 4-(1,2-dihydro-2-oxobenzo[d]imidazol-3-yl)piperidine-1-carboxylate] yielded an IC50 ([1]; Toxoplasma gondii) of 2.5 µM and an IC50 [2, 3] of 3.6 µM.

Work on `O=C(OCCN(Cc1ccccc1)Cc1ccccc1)N1CCC(n2c(=O)[nH]c3ccccc32)CC1` [Compound 30, 2-(dibenzylamino)ethyl 4-(1,2-dihydro-2-oxobenzo[d]imidazol-3-yl)piperidine-1-carboxylate] yielded an IC50 ([1]; Toxoplasma gondii) of 7.5 µM and an IC50 [2, 3] of 6.9 µM.

In the case of `O=C(OCCC(c1ccccc1)c1ccccc1)N1CCC(n2c(=O)[nH]c3ccccc32)CC1` [Compound 36, 3,3-diphenylpropyl 4-(1,2-dihydro-2-oxobenzo[d]imidazol-3-yl)piperidine-1-carboxylate], the IC50 ([1]; Toxoplasma gondii) is reported as 1.2 µM and the IC50 [2, 3] is reported as 8.54 µM.

`O=C(OC[C@H](Cc1ccccc1)N(Cc1ccccc1)Cc1ccccc1)N1CCC(n2c(=O)n(Cc3ccccc3)c3ccccc32)CC1` [Compound 37, (S)-2-(dibenzylamino)-3-phenylpropyl 4-(1-benzyl-1,2-dihydro-2-oxobenzo[d]imidazol-3-yl)piperidine-1-carboxylate, hydrochloride salt] showed an IC50 ([1]; hydrochloride salt) of 1.8 µM and an IC50 ([2]; hydrochloride salt) of 0.873 µM.

Work on `C[C@@H](COC(=O)N1CCC(n2c(=O)[nH]c3cc(Cl)ccc32)CC1)N(Cc1ccccc1)Cc1ccccc1` [Compound 38, (S)-2-(dibenzylamino)propyl 4-(6-chloro-1,2-dihydro-2-oxobenzo[d]imidazol-3-yl)piperidine-1-carboxylate] yielded an IC50 ([1]; Toxoplasma gondii) of 1 µM and an IC50 [2, 3] of 4.68 µM.

With `O=C(OCCC1CCN(Cc2ccccc2)CC1)N1CCC(n2c(=O)[nH]c3ccccc32)CC1` [Compound 40, 2-(1-benzylpiperidin-4-yl)ethyl 4-(1,2-dihydro-2-oxobenzo[d]imidazol-3-yl)piperidine-1-carboxylate] the IC50 ([1]; Toxoplasma gondii) was 0.98 µM and the IC50 [2, 3] was 8.16 µM.

In the case of `CCN(CCOC(=O)N1CCC(n2c(=O)[nH]c3ccccc32)CC1)c1ccccc1` [Compound 41, 2-(ethyl(phenyl)amino)ethyl 4-(2-oxo-2,3-dihydro-1H-benzo[d]imidazol-1-yl)piperidine-1-carboxylate], the IC50 ([1]; Toxoplasma gondii) is reported as 1.8 µM and the IC50 [2, 3] is reported as 24.4 µM.

With `O=C(OC[C@@H]1CCCN1Cc1ccccc1)N1CCC(n2c(=O)[nH]c3ccccc32)CC1` [Compound 42, ((S)-1-benzylpyrrolidin-2-yl)methyl 4-(1,2-dihydro-2-oxobenzo[d]imidazol-3-yl)piperidine-1-carboxylate] the IC50 ([1]; Toxoplasma gondii) was 5 µM and the IC50 [2, 3] was 18.8 µM.

In the case of `O=C(OCC(c1ccccc1)c1ccccc1)N1CCC(n2c(=O)[nH]c3ccccc32)CC1` [Compound 43, 2,2-diphenylethyl 4-(1,2-dihydro-2-oxobenzo[d]imidazol-3-yl)piperidine-1-carboxylate], the IC50 ([1]; Toxoplasma gondii) is reported as 12 µM and the IC50 [2, 3] is reported as 8.33 µM.

For `C[C@@H](COC(=O)N1CCC(c2c[nH]c3ccccc23)CC1)N(Cc1ccccc1)Cc1ccccc1` [Compound 44, (S)-2-(dibenzylamino)propyl 4-(1H-indol-3-yl)piperidine-1-carboxylate], the IC50 ([1]; Toxoplasma gondii) was 1.85 µM and the IC50 [2, 3] was 5.21 µM.

In the case of `CC(C)C[C@@H](COC(=O)N1CCC(n2c(=O)[nH]c3ccccc32)CC1)NCc1ccccc1` [Compound 189, (S)-2-(benzylamino)-4-methylpentyl 4-(2-oxo-2,3-dihydro-1H-benzo[d]imidazol-1-yl)piperidine-1-carboxylate], the IC50 ([1]; Toxoplasma gondii) is reported as 2.3 µM.

`O=C(OCC(Cc1ccccc1)NCc1ccccc1)N1CCC(n2c(=O)[nH]c3ccccc32)CC1` (stereo not drawn) [Compound 190, 2-(benzylamino)-3-phenylpropyl 4-(2-oxo-2,3-dihydro-1H-benzo[d]imidazol-1-yl)piperidine-1-carboxylate] showed an IC50 ([1]; Toxoplasma gondii) of 0.8 µM.
